Measured values reported in patent US20240041986A1, “METHODS AND COMPOSITIONS FOR THE TREATMENT AND PREVENTION OF TYPE 1 DIABETES” (Dr. Mary Morris & Associates, LLC, priority 2020, published 2024).

What was measured:
Format in all cases: in vivo, mouse
[1] = system: NOD mice; test: Incidence and time to onset of Type 1 diabetes (hyperglycemia, blood glucose above 300 mg/dL) in NOD mice after sublingual treatment; settings: for Median survival: control 21.00; for Median Survival (i.e., time to Type 1 diabetes onset): sublingual 87 μg Humulin, control 21 weeks
Description: Sublingual formulation. A commercial high dose Humulin® insulin solution (Humulin® R U-500) containing 500 units of insulin per mL is mixed with an additional equal volume (1:1 (vol:vol)) 100% glycerin. Each dose contains 10 μL of the Humulin®-glycerin solution, which contains 2.5 units (approximately 87 micrograms) of insulin in a solution having a final concentration of ˜52 vol. % glycerin.
NOD mice. Non-obese diabetic (NOD) mice, as described by Makino (Adv. Immunol. 51:285-322 (1992)), are used in the studies described herein. NOD mice provide a widely accepted animal model for the spontaneous development of Type 1 diabetes. NOD mice develop insulitis as a result of leukocyte infiltration into the pancreatic islet, which in turn leads to the destruction of pancreatic islets and a Type 1 diabetic phenotype.
Five-week old female NOD mice were randomly assigned to three groups: (1) control group (1:1 glycerin/phosphate buffered saline (PBS)); (2) insulin-related peptide treatment (Humulin®) started at six weeks of age; or (3) insulin-related peptide treatment (Humulin®) started at ten weeks of age. Mice in the treatment groups (2) and (3) were sublingually administered 2.5 units/87 μg of Humulin® R insulin (10 μL of solution) twice per day […] from age 5 weeks 5 until 8 weeks of age and then once per day, five days per week up to 30 weeks of age. Blood glucose measurements were taken once per week up to 20 weeks of age, and then twice per week thereafter. Mice were classified as diabetic after three consecutive blood glucose readings above 300 mg/dL (hyperglycemic).
Female NOD mice were randomly assigned to two groups: (1) control group (50% glycerin/phosphate buffered saline (PBS)); or (2) insulin-related peptide treatment (Humulin® in 50% glycerin solution; Humulin® sublingual immunotherapy (“Humulin SLIT”)) started at five weeks of age. Mice in the treatment group (2) were sublingually administered 87 μg of Humulin® once per day, five days per week starting at five weeks of age up to 30 weeks of age. Blood glucose measurements were taken once per week up to 13 weeks of age, and then twice per week thereafter. Mice were classified as diabetic after three consecutive blood glucose readings above 300 mg/dL (hyperglycemic). […]

[2] = system: anti-insulin antibodies; test: Anti-insulin antibody ELISA of serum from sublingually treated NOD mice
Description: Autoantibody titer assay. To detect anti-insulin antibodies 96-well ELISA plates were coated with 1 μg/well of Humulin® overnight at 4° C. and were blocked with 1% BSA in PBS. Sera were divided into two equal aliquots that were incubated with or without 10 μg/ml Humulin® on ice for 1 h. The sera were then added to Humulin® coated plates for incubation overnight at 4° C. After extensive washes, the plates were incubated with HRP-conjugated goat anti-mouse IgG The assay is described in Wan et al., J Exp Med. 2016 May 30; 213(6): 967-978.
Five-week old female NOD mice were randomly assigned to two groups: (1) control group (50% PBS/glycerin); and (2) insulin-related peptide treatment (Humulin® insulin) started at six weeks of age. Mice in the treatment group (2) were sublingually administered 87 μg of Humulin® in 50% glycerin solution twice per day, five days per week, up to 30 weeks of age. Serum samples were collected from control and Humulin® SLIT treated NOD mice at 14 weeks of age and assessed for levels of anti-insulin antibody titer (i.e., after sublingual administration of Humulin® for 8 weeks) and stored at −80 C until tested for anti-insulin antibodies in the ELISA described above. The level of anti-insulin antibodies in the samples was determined by ELISA using the assay described in Wan et al., J Exp Med. 2016 May 30; 213(6): 967-978 and the results are shown in FIG. 2. […]

[3] = system: C-peptide; test: Serum C-peptide ELISA (ALPCO) in sublingually treated NOD mice; settings: NOD mice fasted overnight, Humulin started at 5 weeks of age, serum at 6 and 19 weeks of age (FIG. 5)
Description: Serum C-peptide assay. The mouse C-peptide ELISA (ALPCO), which quantifies C-peptide protein products of mouse I and mouse II proinsulin genes, was used. Briefly, mice are fasted overnight and blood is collected by inserting a needle into the submandibular vein and collecting ˜0.2 mL of blood. The blood is centrifuged for 10 minutes at 3000×g in a refrigerated centrifuge, and serum is collected and stored −80° C. The ALPCO C-peptide ELISA is a commercially available FDA Registered For In Vitro Diagnostic Use tool for the quantification of […] C-peptide in serum and plasma samples.
Female NOD mice were randomly assigned to two groups according to Example 3. C-peptide levels in serum were determined by ALPCO C-peptide ELISA from serum samples collected at 6 and 19 weeks of age in mice that were fasted overnight.

[4] = Humulin started at 5 weeks of age (FIG. 3)
[5] = Humulin started at 5 weeks of age vs control (FIG. 3)
[6] = Humulin started at 6 weeks of age (FIG. 1A)
[7] = Humulin started at 6 weeks of age vs control (FIG. 1A)
[8] = Humulin started at 10 weeks of age (FIG. 1B)
[9] = Humulin started at 10 weeks of age vs control (FIG. 1B)
[10] = combined FIG. 1A and FIG. 3 (FIG. 6)
[11] = combined FIG. 1A and FIG. 3 vs control (FIG. 6)

Question: Which results are given for “Humulin: commercial recombinant human insulin solution (Humulin® R U-500) mixed 1:1 with glycerin, sublingual formulation, 87 μg per 10 μL dose”?
Answer: Ratio of median survival (Control / Humulin) [1, 4]: 0.7119; Reciprocal of ratio of median survival [1, 4]: 1.405; Are the survival curves sig different? Gehan-Breslow-Wilcoxon test [1, 5]: Yes; Are the survival curves sig different? Log-rank (Mantel-Cox) test [1, 5]: Yes; Ratio of median survival (Control / Humulin) [1, 6]: 0.778; Reciprocal of ratio of median survival [1, 6]: 1.29; Are the survival curves significantly different? Gehan-Breslow-Wilcoxon test [1, 7]: Yes; Are the survival curves significantly different? Log-rank (Mantel-Cox) test [1, 7]: Yes; Ratio of median survival (Control / Humulin) [1, 8]: 0.8750; Reciprocal of ratio of median survival [1, 8]: 1.14; Are the survival curves significantly different? Gehan-Breslow-Wilcoxon test [1, 9]: No; Are the survival curves significantly different? Log-rank (Mantel-Cox) test [1, 9]: No; incidence (% diabetic) and onset time (weeks) of Type 1 diabetes as compared to the control group ([1]; NOD mice, sublingual Humulin started at five weeks of age (FIG. 3)): reduced; incidence (% T1D Onset) and onset time (weeks) of Type 1 diabetes as compared to the control group ([1]; NOD mice, sublingual Humulin started at six weeks of age (FIG. 1A)): significantly reduced; Ratio of median survival (Control / Humulin) [1, 10]: 0.8077; Reciprocal of ratio of median survival [1, 10]: 1.238; Are the survival curves sig different? Gehan-Breslow-Wilcoxon test [1, 11]: Yes; Are the survival curves sig different? Log-rank (Mantel-Cox) test [1, 11]: Yes; Median survival ([1]; combined results of FIG. 1A and FIG. 3, Humulin started at 5 or 6 weeks of age (FIG. 6, time in Weeks)): 26.00; Median survival ([1]; female NOD mice, sublingual 87 μg Humulin once per day, five days per week, started at 5 weeks of age (FIG. 3, time in Weeks)): 29.50; Median Survival (i.e., time to Type 1 diabetes onset) ([1]; female NOD mice, started at 6 weeks of age (FIG. 1A)): 27 weeks; Median Survival (i.e., time to Type 1 diabetes onset) ([1]; female NOD mice, started at 10 weeks of age (FIG. 1B)): 24 weeks; development of anti-insulin antibodies as compared to the control group ([2]; 87 μg Humulin started at five weeks of age, serum at 19 weeks of age (FIG. 4)): significantly reduced; development of anti-insulin antibodies as compared to the control group ([2]; 87 μg Humulin started at six weeks of age, serum at 14 weeks of age (FIG. 2)): significantly reduced; serum C-peptide levels as compared to untreated control NOD mice [3]: either a maintenance or enhancement
